Here are results for 4 compounds from article PMC9224473 (International Journal of Molecular Sciences, 2022).

The subject of one series is S. aureus NCTC 4163. The series can be described thus: MIC, broth microdilution, standard strain. It counts as cell-based, Staphylococcus aureus. As to conditions: Staphylococcus aureus, NCTC4163, 19 h, 35 °C. In general terms: In broth dilution the organism is exposed to a series of concentrations in liquid medium.
The next series relates to E. coli 600. The series can be described thus: MIC, broth microdilution, clinical strain. It counts as cell-based, Escherichia coli. As to conditions: Escherichia coli, 600, 19 h, 35 °C.
Series [1] concerns S. epidermidis ATCC 12228. The series is described as follows: MIC, broth microdilution, standard strain. To be noted: Staphylococcus epidermidis, ATCC12228, 19 h, 35 °C. It counts as cell-based, Staphylococcus epidermidis.
Another series deals with S. pasteuri KR 4358. The series can be described thus: MIC, broth microdilution, clinical strain. It counts as cell-based, Staphylococcus pasteuri. To be noted: Staphylococcus pasteuri, KR4358, 19 h, 35 °C.
Series [2] deals with S. epidermidis ATCC 35984. The series can be described thus: MIC, broth microdilution, standard strain. Format: cell-based, Staphylococcus epidermidis. To be noted: Staphylococcus epidermidis, ATCC35984, 19 h, 35 °C.
A further series has as its system E. coli ATCC 25922. The series can be described thus: MIC, broth microdilution, standard strain. It counts as cell-based, Escherichia coli. To be noted: 35 °C; for MIC: Escherichia coli, ATCC25922, 19 h.
The subject of a further series is S. aureus ATCC 29213. The series can be described thus: MIC, broth microdilution, standard strain. It counts as cell-based, Staphylococcus aureus. As to conditions: Staphylococcus aureus, ATCC29213, 19 h, 35 °C.
The subject of another series is E. coli 510. The series is described as follows: MIC, broth microdilution, clinical strain. It counts as cell-based, Escherichia coli. To be noted: Escherichia coli, 510, 19 h, 35 °C.
The test system of another series is P. aeruginosa 659. The series is described as follows: MIC, broth microdilution, clinical strain. Format: cell-based, Pseudomonas aeruginosa. As to conditions: Pseudomonas aeruginosa, 659, read-out: MIC P. aeruginosa 659, 19 h, 35 °C.
In the next series the test system is S. epidermidis KR 4243. The series is described as follows: MIC, broth microdilution, clinical strain. Format: cell-based, Staphylococcus epidermidis. As to conditions: Staphylococcus epidermidis, KR4243, 19 h, 35 °C.
A further series has as its system E. coli 520. The series can be described thus: MIC, broth microdilution, clinical strain. It counts as cell-based, Escherichia coli. As to conditions: Escherichia coli, 520, 19 h, 35 °C.
For the next series, the system named is S. aureus ATCC 25923. The series can be described thus: MIC, broth microdilution, standard strain. Format: cell-based, Staphylococcus aureus. To be noted: Staphylococcus aureus, ATCC25923, 19 h, 35 °C.
In the next series the test system is P. aeruginosa ATCC 15442. The series is described as follows: MIC, broth microdilution, standard strain. It counts as cell-based, Pseudomonas aeruginosa. To be noted: Pseudomonas aeruginosa, ATCC15442, 19 h, 35 °C.
The test system of series [3] is SW620 (human metastatic colon cancer). The series can be described thus: MTT cytotoxicity assay. Format: cell-based. To be noted: Homo sapiens, SW-620, 72 h, mean SD. Put shortly: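 SW620 lymph-node metastatic colon cancer cells (MEM, 10% FBS, 37 °C/5% CO2) treated with compounds; viability by MTT reduction, formazan dissolved in DMSO/isopropanol 1:1, read at 570 nm.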

For series [4], the system named is HCT116 (human colon cancer). The series is described as follows: MTT cytotoxicity assay. To be noted: Homo sapiens, HCT-116, 72 h, mean SD. Format: cell-based. Put shortly: (§1)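 Cells were seeded at 1 × 10^4/well, adhered 24 h, then treated for 72 h at 37 °C/5% CO2 against an untreated control. Viability was read as MTT reduction (0.5 mg/mL, 4 h; formazan in DMSO/isopropanol, 570 nm) relative to control, three repeats, with IC50 estimated from the data.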
For orientation: Tetrazolium dyes change colour on reduction, which living cells bring about.

Series [5] has as its system HaCaT (human immortal keratinocyte cell line). The series is described as follows: MTT cytotoxicity assay. Format: cell-based. To be noted: Homo sapiens, HaCaT, 72 h, mean SD, read-out: IC50 HaCaT (normal cells). In a few lines:
as §1

Series [6] deals with HepG2 (human liver cancer). The series can be described thus: MTT cytotoxicity assay. It counts as cell-based. As to conditions: Homo sapiens, HepG2, 72 h, mean SD. In a few lines:
as §1

Series [7] has as its system SW480 (human primary colon cancer). The series can be described thus: MTT cytotoxicity assay. It counts as cell-based. To be noted: Homo sapiens, SW480, 72 h, mean SD. In a few lines:
as §1

In the next series the test system is S. aureus T 5591. The series can be described thus: MIC, broth microdilution, clinical strain. It counts as cell-based, Staphylococcus aureus. To be noted: Staphylococcus aureus, T5591, 19 h, 35 °C.
A further series relates to S. aureus T 5595. The series is described as follows: MIC, broth microdilution, clinical strain. As to conditions: Staphylococcus aureus, T5595, 19 h, 35 °C. It counts as cell-based, Staphylococcus aureus.
For the next series, the system named is S. aureus ATCC 6538. The series can be described thus: MIC, broth microdilution, standard strain. It counts as cell-based, Staphylococcus aureus. To be noted: Staphylococcus aureus, ATCC6538, 19 h, 35 °C.
Series [8] deals with standard Gram-positive Staphylococci. The series can be described thus: MIC, panel of standard Gram-positive strains. As to conditions: range over all standard Gram-positive Staphylococci. Format: cell-based, Staphylococcus.
Series [9] deals with standard bacteria strains. The series can be described thus: Antimicrobial screening (MIC), standard bacteria strains. It counts as cell-based. As to conditions: MIC evaluation. As for the experimental part:
Obtained compounds were examined for antimicrobial potency. Firstly, all of them were screened for their minimal inhibitory concentrations (MICs). A suitable set of bacteria was used, including representative standard Gram-positive and Gram-negative rods (Table 2 and Table 3). For clarity, results are presented for menthol and thymol derivatives separately.
The antimicrobial assays were conducted using reference strains of bacteria derived from international microbe collections: American Type Culture Collection (ATCC) and National Collection of Type Culture (NCTC). The following standard strains of bacteria were used: Gram-positive—Staphylococcus aureus NCTC 4163, Staphylococcus aureus ATCC 25923, Staphylococcus aureus ATCC 6538, Staphylococcus aureus ATCC 29213, Staphylococcus epidermidis ATCC 12228, Staphylococcus epidermidis ATCC 35984, Gram-negative: Escherichia coli ATCC 25922, Pseudomonas aeruginosa ATCC 15442. […] Antimicrobial activity was examined by the Minimal Inhibitory Concentration (MIC) method under standard procedures provided by CLSI with some modifications. MIC was determined by the two-fold serial broth microdilution method in 96-well microtitration plates using Mueller–Hinton II broth medium (Becton Dickinson, Franklin Lakes, NJ, USA). The final inoculum of all studied bacteria was 10^6 CFU/mL (colony forming unit per millilitre). The stock solution of tested compounds was prepared in dimethyl sulfoxide (DMSO) and diluted to a maximum of 1% of solvent content with a sterile medium.

Each structure is given as a SMILES string. Converted amounts (≈) assume the structure as drawn.

The MIC is the least concentration at which growth counts as inhibited. For orientation: IC50 means the midpoint of a concentration-inhibition curve. One may read the melting point as the temperature, or range, at which the solid turns liquid.

As for `Cc1ccc(C(C)C)c(OC(=O)CCCN2CCN(c3cc4c(cc3F)c(=O)c(C(=O)O)cn4C3CC3)CC2)c1` [Compound 12, 1-cyclopropyl-6-fluoro-7-{4-[4-(2-isopropyl-5-methylphenoxy)-4-oxobutyl]piperazin-1-yl}-4-oxo-1,4-dihydroquinoline-3-carboxylic acid], the MIC with S. aureus NCTC 4163 is 1.6 µg/mL (≈ 2.91 µM); against E. coli 600 it was 4 µg/mL (≈ 7.28 µM); in series [1] it was 0.8 µg/mL (≈ 1.46 µM); with S. pasteuri KR 4358 it was 1 µg/mL (≈ 1.82 µM); in [2], 0.8 µg/mL (≈ 1.46 µM); against E. coli ATCC 25922, 2 to 4 µg/mL (≈ 3.64 to 7.28 µM). Further, the MIC with S. aureus ATCC 29213 is 0.8 µg/mL (≈ 1.46 µM); against E. coli 510, 128 µg/mL (≈ 233 µM); with P. aeruginosa 659, 64 µg/mL (≈ 116 µM); against S. epidermidis KR 4243 it was 2 µg/mL (≈ 3.64 µM); against E. coli 520 it was 8 µg/mL (≈ 14.6 µM); with S. aureus ATCC 25923, 0.8 µg/mL (≈ 1.46 µM). In addition, the MIC against P. aeruginosa ATCC 15442 is 12.8 µg/mL (≈ 23.3 µM); with S. aureus T 5591, 1 µg/mL (≈ 1.82 µM); against S. aureus T 5595 it was 4 µg/mL (≈ 7.28 µM); with S. aureus ATCC 6538 it was 1.6 µg/mL (≈ 2.91 µM). Further, the “MIC E. coli ATCC 25922” value against E. coli ATCC 25922 (19 h) came out at 3.2 µg/mL (≈ 5.82 µM). The IC50 in [3] was found to be 61.8 ± 0.1 µM; in series [4] it was 28.6 ± 0.1 µM; in series [5] it was 59.1 ± 3.1 µM; in [6], 43.4 ± 3.1 µM; in series [7], 33.7 ± 3.5 µM. In addition, in [8], the “MIC range against standard Gram-positive strains” value lay in the range of 0.8 to 1.6 µg/mL.
In turn, `CC(C)[C@@H]1CC[C@@H](C)C[C@H]1OC(=O)CCCCCN1CCN(c2cc3c(cc2F)c(=O)c(C(=O)O)cn3C2CC2)CC1` [Compound 6, 1-cyclopropyl-6-fluoro-7-{4-[6-((1R,2S,5R)-2-isopropyl-5-methylcyclohexyloxy)-6-oxohexyl]piperazin-1-yl}-4-oxo-1,4-dihydroquinoline-3-carboxylic acid] displayed a melting point of 210.8 to 212.4 °C. This compound had a minimum inhibitory concentration (MIC) in the series with S. aureus NCTC 4163 of 4 µg/mL (≈ 6.85 µM). It took 64 µg/mL (≈ 110 µM) to inhibit growth in the series on E. coli 600 (MIC). This compound came in with a minimum inhibitory concentration (MIC) in [1] of 8 µg/mL (≈ 13.7 µM). In the series with S. pasteuri KR 4358, inhibition of growth (MIC) required 8 µg/mL (≈ 13.7 µM). For the same compound, the MIC in series [2] worked out at 8 µg/mL (≈ 13.7 µM). The same compound yielded an MIC in the series with E. coli ATCC 25922 of 32 µg/mL (≈ 54.8 µM). In the series with S. aureus ATCC 29213, this compound had an MIC of 8 µg/mL (≈ 13.7 µM). In the series with E. coli 510, the MIC was above 256 µg/mL. Besides, the MIC with P. aeruginosa 659 was above 256 µg/mL. In the series with S. epidermidis KR 4243, this compound showed an MIC of 8 µg/mL (≈ 13.7 µM). The compound further returned an MIC against E. coli 520 of 64 µg/mL (≈ 110 µM). Inhibition of growth against S. aureus ATCC 25923 (MIC) required 8 µg/mL (≈ 13.7 µM). The compound further registered an MIC against P. aeruginosa ATCC 15442 of 256 µg/mL (≈ 439 µM). Further, the IC50 in series [3] amounted to 38.1 ± 2.5 µM. In series [4], this compound displayed an IC50 of 29.5 ± 2.1 µM. The IC50 in series [5] was above 100 µM. For the same compound, inhibition in [6] was half-maximal at 53.7 ± 0.9 µM (IC50). The compound further displayed an IC50 in series [7] of 46.2 ± 1.8 µM. The compound also returned an MIC with S. aureus T 5591 of 8 µg/mL (≈ 13.7 µM). Further, the lowest concentration to inhibit growth in the series on S. aureus T 5595 (MIC) was 8 µg/mL (≈ 13.7 µM). In the series on S. aureus ATCC 6538, this compound registered an MIC of 4 µg/mL (≈ 6.85 µM).
For the compound `CC(C)[C@@H]1CC[C@@H](C)C[C@H]1OC(=O)CCCCOC(=O)c1cn(C2CC2)c2cc(N3CCN(CCCCC(=O)O[C@@H]4C[C@H](C)CC[C@H]4C(C)C)CC3)c(F)cc2c1=O` [Compound 7, 5-((1R,2S,5R)-2-isopropyl-5-methylcyclohexyloxy)-5-oxopentyl-1-cyclopropyl-6-fluoro-7-{4-[5-((1R,2S,5R)-2-isopropyl-5-methylcyclohexyloxy)-5-oxopentyl]piperazin-1-yl}-4-oxo-1,4-dihydroquinoline-3-carboxylate], the minimal inhibitory concentration (MIC) (in the series on S. aureus NCTC 4163; in series [1]; in [2]; against E. coli ATCC 25922; in the series with S. aureus ATCC 29213; in the series on S. aureus ATCC 25923) was above 256 µg/mL throughout. Moreover, the MIC in the series with P. aeruginosa ATCC 15442 and in the series with S. aureus ATCC 6538 was above 256 µg/mL in each case. Also, the “Antimicrobial activity (in words)” value in [9] was “rather inactive”. Besides, the IC50 in series [3] was found to be 54.1 ± 0.5 µM; in series [4], 49.3 ± 6.5 µM; in series [5] it was 25.6 ± 1.2 µM; in series [6], 32.8 ± 3.1 µM; in series [7], 45.5 ± 5.5 µM.
Consider `Cc1ccc(C(C)C)c(OC(=O)CCCCCOC(=O)c2cn(C3CC3)c3cc(N4CCN(CCCCCC(=O)Oc5cc(C)ccc5C(C)C)CC4)c(F)cc3c2=O)c1` [Compound 16], for which the MIC with S. aureus NCTC 4163 was 128 µg/mL (≈ 155 µM); in series [1], 128 µg/mL (≈ 155 µM); in series [2] it was 128 µg/mL (≈ 155 µM); against E. coli ATCC 25922 it was above 256 µg/mL; with S. aureus ATCC 29213 it was 256 µg/mL (≈ 311 µM); in the series on S. aureus ATCC 25923 it was 128 µg/mL (≈ 155 µM). Further, the MIC was above 256 µg/mL with P. aeruginosa ATCC 15442 and 64 µg/mL (≈ 77.7 µM) with S. aureus ATCC 6538. Further, the “Antimicrobial activity (in words)” value in series [9] is “rather inactive”. The concentration for half-maximal inhibition (IC50) in series [3] came to 49.6 ± 7 µM; in [4], 30.5 ± 2.3 µM; in series [5], 64.9 ± 5.1 µM; in series [6], 41.8 ± 2.5 µM; in series [7], 29.5 ± 1.9 µM.
